Assay results taken from paper PMC12092823 (Scientific Reports, 2025).

Columns and labels:
α-glucosidase [1] = assay: In vitro α-glucosidase inhibition assay; format: biochemical, yeast; details: for anti-α-glucosidase activity in words: in comparison to acarbose or compound 14b; for folds more active than acarbose against α-glucosidase: versus acarbose
α-glucosidase [2] = assay: Kinetic study; format: biochemical, yeast; details: Lineweaver–Burk plots

Compound: Cc1cc([N+](=O)[O-])ccc1NC(=O)Cn1cc(CNC(=O)c2cc3c([nH]c4ccccc43)c(-c3ccc(Cl)cc3)n2)nn1 [14 L, 1-(4-chlorophenyl)-N-((1-(2-((2-methyl-4-nitrophenyl)amino)-2-oxoethyl)-1 H-1,2,3-triazol-4-yl)methyl)-9 H-pyrido[3,4-b]indole-3-carboxamide]
- anti-α-glucosidase activity in words (α-glucosidase [1]): good

Compound: O=C(Cn1cc(CNC(=O)c2cc3c([nH]c4ccccc43)c(-c3ccc(Cl)cc3)n2)nn1)Nc1ccccc1F [14 m, 1-(4-chlorophenyl)-N-((1-(2-((2-fluorophenyl)amino)-2-oxoethyl)-1 H-1,2,3-triazol-4-yl)methyl)-9 H-pyrido[3,4-b]indole-3-carboxamide]
- folds more active than acarbose against α-glucosidase (α-glucosidase [1]): around 5 folds

Compound: Cc1ccccc1NC(=O)Cn1cc(CNC(=O)c2cc3c([nH]c4ccccc43)c(-c3ccccc3)n2)nn1 [Compound 14b, N-((1-(2-oxo-2-(o-tolylamino)ethyl)-1 H-1,2,3-triazol-4-yl)methyl)-1-phenyl-9 H-pyrido[3,4-b]indole-3-carboxamide]
- anti-α-glucosidase activity in words (α-glucosidase [1]): significant
- effect of increasing inhibitor concentration on Km and Vmax (α-glucosidase [2]): decrease in Km and Vmax
- type of α-glucosidase inhibition (α-glucosidase [2]): uncompetitive

Compound: Cc1cc([N+](=O)[O-])ccc1NC(=O)Cn1cc(CNC(=O)c2cc3c([nH]c4ccccc43)c(-c3ccccc3)n2)nn1 [Compound 14c, N-((1-(2-((2-methyl-4-nitrophenyl)amino)-2-oxoethyl)-1 H-1,2,3-triazol-4-yl)methyl)-1-phenyl-9 H-pyrido[3,4-b]indole-3-carboxamide]
- decrease of anti-α-glucosidase activity relative to compound 14b (α-glucosidase [1]; versus compound 14b): 10 folds

Compound: COc1ccc(NC(=O)Cn2cc(CNC(=O)c3cc4c([nH]c5ccccc54)c(-c4ccccc4)n3)nn2)c([N+](=O)[O-])c1 [Compound 14e, N-((1-(2-((4-methoxy-2-nitrophenyl)amino)-2-oxoethyl)-1 H-1,2,3-triazol-4-yl)methyl)-1-phenyl-9 H-pyrido[3,4-b]indole-3-carboxamide]
- anti-α-glucosidase activity in words (α-glucosidase [1]): moderate

Compound: COc1ccc(-c2nc(C(=O)NCc3cn(CC(=O)Nc4cccc(Cl)c4)nn3)cc3c2[nH]c2ccccc23)cc1 [Compound 14i, N-((1-(2-((3-chlorophenyl)amino)-2-oxoethyl)-1 H-1,2,3-triazol-4-yl)methyl)-1-(4-methoxyphenyl)-9 H-pyrido[3,4-b]indole-3-carboxamide]
- anti-α-glucosidase activity in words (α-glucosidase [1]): significant inhibitor

Compound: O=C(Cn1cc(CNC(=O)c2cc3c([nH]c4ccccc43)c(-c3ccc(Cl)cc3)n2)nn1)Nc1ccccc1 [Compound 14j, 1-(4-chlorophenyl)-N-((1-(2-oxo-2-(phenylamino)ethyl)-1 H-1,2,3-triazol-4-yl)methyl)-9 H-pyrido[3,4-b]indole-3-carboxamide]
- folds more active than acarbose against α-glucosidase (α-glucosidase [1]): around 5 folds

Compound: Cc1ccccc1NC(=O)Cn1cc(CNC(=O)c2cc3c([nH]c4ccccc43)c(-c3ccc(Cl)cc3)n2)nn1 [Compound 14k, 1-(4-chlorophenyl)-N-((1-(2-oxo-2-(o-tolylamino)ethyl)-1 H-1,2,3-triazol-4-yl)methyl)-9 H-pyrido[3,4-b]indole-3-carboxamide]
- inhibitory activity diminished relative to compound 14 L (α-glucosidase [1]; versus compound 14 L): 3 folds

Compound: O=C(Cn1cc(CNC(=O)c2cc3c([nH]c4ccccc43)c(-c3ccc(Cl)cc3)n2)nn1)Nc1cccc(Cl)c1 [Compound 14n, 1-(4-chlorophenyl)-N-((1-(2-((3-chlorophenyl)amino)-2-oxoethyl)-1 H-1,2,3-triazol-4-yl)methyl)-9 H-pyrido[3,4-b]indole-3-carboxamide]
- anti-α-glucosidase activity in words (α-glucosidase [1]): good
